Results on 18 molecules are retold here after ChEMBL document CHEMBL4130620, “Disconnecting the Estrogen Receptor Binding Properties and Antimicrobial Properties of Parabens through 3,5-Substitution” (ACS Med Chem Lett, 2018).

Molecules are shown by their SMILES. ≈ marks a conversion by molar mass, not a printed value.

The subject of data set [1] is MCF7. In kind it is toxicity, cell-based. The conditions noted are these: human.
A further data set relates to Staphylococcus aureus. The data set can be described thus: microbe, parasite or virus in culture. The conditions noted are these: 155554A, 16 h.
The target in the next data set is T1, Estrogen receptor (Homo sapiens, UniProt P03372).
T1 sequence (P03372 whole entry): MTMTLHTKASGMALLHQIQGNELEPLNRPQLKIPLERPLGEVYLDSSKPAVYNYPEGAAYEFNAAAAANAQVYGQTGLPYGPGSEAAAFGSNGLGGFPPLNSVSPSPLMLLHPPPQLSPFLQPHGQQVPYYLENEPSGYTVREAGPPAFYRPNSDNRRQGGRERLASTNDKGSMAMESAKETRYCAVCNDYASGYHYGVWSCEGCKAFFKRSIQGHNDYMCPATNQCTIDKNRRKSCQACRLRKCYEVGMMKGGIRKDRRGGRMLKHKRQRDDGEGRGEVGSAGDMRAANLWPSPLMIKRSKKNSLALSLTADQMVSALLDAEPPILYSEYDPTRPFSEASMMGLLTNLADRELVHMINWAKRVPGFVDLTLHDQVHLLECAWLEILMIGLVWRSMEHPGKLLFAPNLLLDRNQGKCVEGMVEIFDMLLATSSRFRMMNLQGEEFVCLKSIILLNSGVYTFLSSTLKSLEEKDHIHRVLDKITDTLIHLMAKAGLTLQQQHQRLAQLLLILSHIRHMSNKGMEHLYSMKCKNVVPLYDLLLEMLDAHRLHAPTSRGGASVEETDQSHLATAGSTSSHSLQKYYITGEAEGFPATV

Data set [2] concerns MCF7. In kind it is ADME, cell-based. The conditions noted are these: human, mcf7, 24 h.
Data set [3] addresses T2, Estrogen receptor alpha (ERalpha) (Homo sapiens, UniProt P03372).
T2 sequence (P03372 whole entry): T1 sequence (P03372 whole entry)
The data set can be described thus: Safety index, ratio of IC50 for test compound to IC50 for paraben for displacement of Fluor.ES2 Green from human ERalpha by TR-FRET competitive binding assay. The conditions noted are these: probe Fluor.ES2 Green, read-out: Ratio IC50. A general note: Time-resolved FRET reads energy transfer from a long-lived donor to a nearby acceptor.

Data set [4] relates to MCF7. The format is toxicity, cell-based. The conditions noted are these: human. This is another data set of the same source.
For data set [5], the target named is T2, Estrogen receptor alpha (ERalpha). Put plainly: Displacement of Fluor.ES2 Green from human ERalpha at 100000 nM by TR-FRET competitive binding assay. The settings on record: probe Fluor.ES2 Green.
Data set [6] can be described thus: Solubility of the compound at >512 ug/ml. In kind it is physicochemical.

Description for Staphylococcus aureus: Antibacterial activity against Staphylococcus aureus 155554A incubated for 16 hrs by microdilution assay

By IC50 is commonly meant the concentration that gives 50% inhibition. As to `CCCCOC(=O)c1cc(Br)c(O)c(Br)c1`, the Activity result with MCF7 [1], in the data set with MCF7 [2] and with MCF7 [4] was “Non-Toxic” in each case. The molecule also registered an MIC in the data set on Staphylococcus aureus of 91 µM (≈ 32 µg/mL). The same molecule came in with an IC50 against Estrogen receptor of 39.4 µM. In addition, the selectivity ratio in data set [3] is 20 to 40.

As usually defined, the inhibition is the percentage by which the read-out fell short of the control. `CCCCOC(=O)c1cc(OC)c(O)c(OC)c1` registered an MIC against Staphylococcus aureus of 924 µM (≈ 235 µg/mL). At Estrogen receptor, the IC50 is over 200 µM. Moreover, the Activity result in the data set with MCF7 [2] is listed as “Non-Toxic”. Also, in data set [3], the selectivity ratio lay in the range of 20 to 40. Besides, the inhibition at 100 µM in data set [5] worked out at 20%. Also, in data set [6], the solubility result is recorded as “Insoluble”.

With `CCCCOC(=O)c1cc([N+](=O)[O-])c(O)c([N+](=O)[O-])c1`, in the data set with Staphylococcus aureus, the MIC was determined as 1810 µM (≈ 514 µg/mL). The molecule also yielded an IC50 on Estrogen receptor of over 200 µM. In the data set on MCF7 [2], the Activity result is reported as “Non-Toxic”. Also, in data set [3], the selectivity ratio fell in the range of 20 to 40. Moreover, 100 µM produced 20% inhibition in data set [5].

The molecule `CCCCOC(=O)c1c(F)c(F)c(O)c(F)c1F` showed an MIC in the data set on Staphylococcus aureus of 483 µM (≈ 129 µg/mL). The same molecule showed an IC50 at Estrogen receptor of 29.4 µM. Also, the Activity result in the data set on MCF7 [2] is “Non-Toxic”. The selectivity ratio in data set [3] was 20 to 40.

`CCCCOC(=O)c1cc(C(C)(C)C)c(O)c(C(C)(C)C)c1`: the MIC in the data set on Staphylococcus aureus was 834 µM (≈ 256 µg/mL). The half-maximal inhibitory concentration (IC50) against Estrogen receptor was over 200 µM. Moreover, the Activity entry in the data set on MCF7 [2] is “Non-Toxic”. For the same molecule, in data set [3], the selectivity ratio lay in the range of 20 to 40. In data set [5], the inhibition at 100 µM is 20%. In addition, the solubility entry in data set [6] is on record as “Insoluble”.

Consider `CCCCCCCCOC(=O)c1cc(C)c(O)c(C)c1`, for which, in the data set on Staphylococcus aureus, the MIC worked out at 213 µM (≈ 59.3 µg/mL). At Estrogen receptor, this molecule displayed an IC50 of 16.2 µM. Further, the Activity result in the data set with MCF7 [2] was “Non-Toxic”. For the same molecule, the selectivity ratio in data set [3] is 20 to 40.

`CCCCOC(=O)c1ccc(O)c(I)c1` gave an MIC in the data set with Staphylococcus aureus of 199 µM (≈ 63.7 µg/mL). At Estrogen receptor, this molecule showed a concentration for half-maximal inhibition (IC50) of 7.98 µM. For the same molecule, in the data set on MCF7 [2], the Activity result is “Non-Toxic”.

Consider `CCCCCCCCOC(=O)c1cc([N+](=O)[O-])c(O)c([N+](=O)[O-])c1`, for which the Activity result in the data set on MCF7 [1], in the data set on MCF7 [2] and with MCF7 [4] was “Non-Toxic” throughout. In addition, the MIC in the data set on Staphylococcus aureus was determined as 47 µM (≈ 16 µg/mL). Further, the IC50 on Estrogen receptor is 60.4 µM. In data set [3], the selectivity ratio fell in the range of 20 to 40.

With `CCCCCCCCOC(=O)c1cc(I)c(O)c(I)c1`, the Activity result in the data set on MCF7 [1], in the data set with MCF7 [2] and with MCF7 [4] was “Non-Toxic” in each case. In addition, in the data set on Staphylococcus aureus, the MIC worked out at 31.8 µM (≈ 16 µg/mL). Moreover, on Estrogen receptor, the IC50 was found to be 13.2 µM. For the same molecule, the selectivity ratio in data set [3] was 20 to 40.

In the case of `CCCCOC(=O)c1ccc(O)c(Br)c1`, the MIC in the data set on Staphylococcus aureus is 236 µM (≈ 64.5 µg/mL). On Estrogen receptor, this molecule gave an IC50 of 8.21 µM. Also, the Activity entry with MCF7 [2] is “Non-Toxic”.

In the data set on Staphylococcus aureus, `CCCCOC(=O)c1cc(C)c(O)c(C)c1` showed an MIC of over 1040 µM. Moreover, 32.5 µM corresponded to half-maximal inhibition against Estrogen receptor (IC50). For the same molecule, the Activity entry with MCF7 [2] was “Non-Toxic”. For the same molecule, the selectivity ratio in data set [3] fell in the range of 20 to 40. Also, the solubility result in data set [6] is “Insoluble”.

In turn, `CCCCOC(=O)c1cc(Cl)c(O)c(Cl)c1` showed an MIC in the data set on Staphylococcus aureus of 245 µM (≈ 64.5 µg/mL). The molecule further registered an IC50 at Estrogen receptor of 55.3 µM. Further, the Activity entry in the data set on MCF7 [2] is “Non-Toxic”. For the same molecule, in data set [3], the selectivity ratio was 20 to 40.

With `CCCCOC(=O)c1cc(I)c(O)c(I)c1`, the Activity entry in the data set with MCF7 [1], in the data set on MCF7 [2] and in the data set on MCF7 [4] was “Non-Toxic” in each case. The molecule also registered an MIC in the data set on Staphylococcus aureus of 36 µM (≈ 16.1 µg/mL). This molecule also yielded an IC50 on Estrogen receptor of 34.6 µM. The selectivity ratio in data set [3] was 20 to 40.

In the data set with Staphylococcus aureus, `CCCCOC(=O)c1cc(O)c(O)c(O)c1` [BUTYL GALLATE] showed an MIC of 2060 µM (≈ 465 µg/mL). In addition, on Estrogen receptor, the IC50 stood at 8.97 µM. Further, the Activity entry with MCF7 [2] is recorded as “Non-Toxic”.

In the data set with Staphylococcus aureus, `CCCCOC(=O)c1ccc(O)cc1` [BUTYLPARABEN] yielded an MIC of 1320 µM (≈ 256 µg/mL). Further, the Activity result in the data set on MCF7 [2] is listed as “Toxic”.

Consider `CCOC(=O)c1ccc(O)cc1` [ETHYLPARABEN], for which the Activity result in the data set on MCF7 [2] is “Toxic”.

`CCCCCCCCOC(=O)c1cc(O)c(O)c(O)c1` [OCTYL_GALLATE] came in with an MIC with Staphylococcus aureus of 210 µM (≈ 59.3 µg/mL). At Estrogen receptor, the IC50 worked out at 8.74 µM. Further, in the data set on MCF7 [2], the Activity entry is on record as “Non-Toxic”. Further, the selectivity ratio in data set [3] lay in the range of 20 to 40.

As to `CC1(C)S[C@@H]2[C@H](NC(=O)Cc3ccccc3)C(=O)N2[C@H]1C(=O)O` [PENICILLIN G], in the data set on Staphylococcus aureus, the MIC turned out to be 0.749 µM (≈ 0.25 µg/mL).
